Data from patent US20100279962A1, “MONOSEBACATE OF PYRAZOLE DERIVATIVE” (KISSEI PHARMACEUTICAL CO., LTD., priority 2007, published 2010).

Key:
[1] = Storage stability test (purity by HPLC, deliquescence); format: physicochemical; conditions: for Purity (%) Initial / Purity (%) After 2 months: HPLC; for Storage stability (in words): 2 months
Method: The crystals of the monosebacate in Example 1 and amorphous 3-(3-{4-[3-(β-D-glucopyranosyloxy)-5-isopropyl-1H-pyrazol-4-ylmethyl]-3-methylphenoxy} propylamino)-2,2-dimethylpropionamide (free form) as Comparative Example were stored under condition of 40° C./75% relative humidity or 60° C. in open vessels, existence or nonexistence of the deliquescence and the storage stability for 2 months were examined. […] Analytical conditions of HPLC are as follows.
Detector: ultraviolet-visible absorption spectrophotometer
Column: LUNA C18(2) (produced by Phenomenex), 5 μm, 4.6×250 mm, particle diameter 100×10^−10 m
Column Temperature: a constant temperature of around 25° C.
Sample concentration: 1 mg/mL
Mobile phase A: 10 mM dipotassium hydrogenphosphate aqueous solution adjusted to pH 7.8 with phosphoric acid
Mobile phase B: Acetonitrile
0-30 min: Mobile phase A/Mobile phase B=78/22, 30-50 min: Mobile phase A/Mobile phase B=78/22→30/70, 50-60 min: Mobile phase A/Mobile phase B=30/70
Range of area measurement: for 50 minutes from the start, except for the area of the peak of the blank solution

Male Wistar rats [2] = experiment: Oral glucose tolerance test, combination effect with sulfonylureas; format: in vivo, rat; conditions: for Plasma glucose concentration (mg/dL) Just before administration: fasted rats, baseline before oral dosing; for Plasma glucose concentration (mg/dL) Just before administration / Plasma glucose concentration (mg/dL) 1 hr after administration: mean ± standard error; for Plasma glucose concentration at 1 hr compared with the Control group (in words) / Plasma glucose concentration (mg/dL) 1 hr after administration: oral, monosebacate 0.03 mg/kg as free form, gliclazide 0.3 mg/kg, oral glucose load
Method: (§1) Male Wistar rats (Charles River Japan, Inc.) at 9 weeks of age, fasted about 16 hours (each group has 6 animals), were administrated orally in a volume of 2.5 mL/kg with distilled water and 0.1% methylcellulose solution in the Control group, with the monosebacate (0.03 mg/kg as the above compound (B) (free form)) dissolved in distilled water (hereinafter referred to as the “monosebacate solution”) and 0.1% methylcellulose solution in the Monosebacate alone group, with gliclazide (0.3 mg/kg as gliclazide) dissolved in 0.1% methylcellulose solution (hereinafter referred to as the “gliclazide solution”) and distilled water in the Gliclazide alone group and with the monosebacate solution and the gliclazide solution (0.03 mg/kg as the compound (B) and 0.3 mg/kg as gliclazide) in the Gliclazide combination group, respectively. Subsequently, 0.4 g/mL of glucose solution (5 mL/kg) was loaded orally. The blood was collected from tail vein before and 1 hr after administration of test substance, and the plasma glucose concentrations were measured using Glucose C-II test WAKO (Wako Pure Chemical Industries, Ltd.). The numerical values in the table represent mean value±standard error.

Male Wistar rats [3] = experiment: Oral glucose tolerance test, combination effect with glinides; format: in vivo, rat; conditions: for Plasma glucose concentration (mg/dL) Just before administration: fasted rats, baseline before oral dosing; for Plasma glucose concentration (mg/dL) Just before administration / Plasma glucose concentration (mg/dL) 1 hr after administration: mean ± standard error; for Plasma glucose concentration at 1 hr compared with the Control group (in words) / Plasma glucose concentration (mg/dL) 1 hr after administration: oral, monosebacate 0.03 mg/kg as free form, mitiglinide calcium hydrate 0.3 mg/kg, oral glucose load
Method: as §1
Instead of gliclazide in the Gliclazide alone group and the Gliclazide combination group, mitiglinide calcium hydrate (JAN) (0.3 mg/kg as mitiglinide calcium hydrate) was used (hereinafter referred to as the “Mitiglinide alone group” and the “Mitiglinide combination group”, respectively), and the plasma glucose concentrations were measured in the same way as the above method (1). The numerical values in the table represent mean value±standard error.

[4] = 40° C./75% relative humidity storage test
[5] = 60° C. in open vessels storage test
[6] = stored at 40° C./75% relative humidity for 2 months
[7] = stored at 60° C. in open vessels for 2 months

Molecule	Deliquescence ([1]; 40° C./75% relative humidity)	Purity (%) Initial [1, 4] [%]	Storage stability (in words) ([1]; 40° C./75% relative humidity)	Deliquescence ([1]; 40° C./75% relative humidity, listed as free form)	Purity (%) Initial [1, 5] [%]	Storage stability (in words) ([1]; 60° C. in open vessels)	Purity (%) After 2 months [1, 6] [%]	Purity (%) After 2 months [1, 7] [%]	Plasma glucose concentration (mg/dL) Just before administration (Male Wistar rats [2]) [mg/dL]	Plasma glucose concentration at 1 hr compared with the Control group (in words) (Male Wistar rats [2])	Plasma glucose concentration (mg/dL) 1 hr after administration (Male Wistar rats [2]) [mg/dL]	Plasma glucose concentration (mg/dL) Just before administration (Male Wistar rats [3]) [mg/dL]	Plasma glucose concentration at 1 hr compared with the Control group (in words) (Male Wistar rats [3])	Plasma glucose concentration (mg/dL) 1 hr after administration (Male Wistar rats [3]) [mg/dL]
Cc1cc(OCCCNCC(C)(C)C(N)=O)ccc1Cc1c(O[C@@H]2O[C@H](CO)[C@@H](O)[C@H](O)[C@H]2O)n[nH]c1C(C)C [Comparative Example, 3-(3-{4-[3-(β-D-glucopyranosyloxy)-5-isopropyl-1H-pyrazol-4-ylmethyl]-3-methylphenoxy}propylamino)-2,2-dimethylpropionamide]	Yes	98.7	decrease in the purity	deliquescence from the initial of the experiment	98.7	remarkable decrease in the purity due to the decomposition	97.0	95.3	–	–	–	–	–	–
Cc1ccc(S(=O)(=O)NC(=O)NN2CC3CCCC3C2)cc1 (stereo not drawn) [Gliclazide, gliclazide]	–	–	–	–	–	–	–	–	80.7 ± 6.7	lower plasma glucose concentrations	136.5 ± 6.7	–	–	–
O=C(O)[C@H](CC(=O)N1C[C@H]2CCCC[C@H]2C1)Cc1ccccc1 [Mitiglinide, mitiglinide calcium hydrate]	–	–	–	–	–	–	–	–	–	–	–	85.8 ± 1.7	lower plasma glucose concentrations	119.1 ± 5.8
Bis[3-(3-{4-[3-(β-D-glucopyranosyloxy)-5-isopropyl-1H-pyrazol-4-ylmethyl]-3-methylphenoxy}propylamino)-2,2-dimethylpropionamide] monosebacate [Example 1]	Nil	99.6	excellent storage stability	–	99.6	almost no decrease in the purity	99.5	99.2	81.6 ± 3.1	lower plasma glucose concentrations	127.6 ± 3.8	83.8 ± 1.8	lower plasma glucose concentrations	141.3 ± 5.6
